According to patent publication US5521184A, “Pyrimidine derivatives and processes for the preparation thereof” (Ciba-Geigy Corporation, priority 1992, dated 1996):

What was measured:
[1] = test system: human T24 bladder carcinoma; experiment: tumour-inhibiting activity in nude mice with transplanted human T24 bladder carcinoma; format: in vivo, female Balb/c nude mice; conditions: perorally or intraperitoneally once daily for 15 days
Description: The tumour-inhibiting activity is determined using female Balb/c nude mice in which human T24 bladder carcinoma has been transplanted. On day 0, a c. 25 mg piece of solid tumour is transplanted subcutaneously under peroral "forene" narcosis on the left flank and the small incision wound is closed with a suture clip. On day 6 after the tumour transplantation, the mice are randomised in groups of 6 animals and treatment is commenced. The treatment is carded out for 15 days by administering a compound of formula I, e.g. N-[3-(1,1,2,2-Tetrafluoroethoxy)phenyl]-4-(4-pyridyl)-2-pyrimidine-amine, in dimethyl sulfoxide/Tween 80/sodium chloride solution in the different doses perorally or intraperitoneally once daily. The tumours are measured twice weekly with a sliding caliper and the tumour volume determined.

[2] = test system: p34^cdc2 /cyclin B^cdc13 kinase; experiment: p34cdc2/cyclin Bcdc13 kinase assay with histone H1 as substrate; format: biochemical, starfish
Description: Starfish oocytes are induced to enter M phase with 10 μM 1-methyladenine, frozen in liquid nitrogen and stored at -80° C. When required the oocytes are homogenized and centrifuged as described by D. Arion et al., Cell 55, 371-378 (1988) and V. Rialet und L. Meijer, Anticancer Res. 11, 1581-1590 (1991). For purification of p34^cdc2 /cyclin B^cdc13 kinase, the supernatant of oocytes is added to p9^CKShs -sepharose beads prepared from recombinant human p9^CKShsas described by L. Azzi et al., Eur. J. Biochem. 203, 353-360 (1992). After 30 minutes at 4° C. under constant rotation, the beads are extensively washed and active p34^cdc2 /cyclin B^cdc13 kinase is eluted with free p9^CKShs (3 mg/ml). The eluted kinase is assayed using histone H1 as a substrate as described by L. Meijer et al., EMBO J. 8, 2275-2282 (1989) und EMBO J. 10, 1545-1554 (1991). The reaction mixture contains 10 μl p34^cdc2 /cyclin B^cdc13 kinase, 5 μl histone H1, type III-S (5 mg/ml) and 10 μl buffer C. The reaction is started by addition of 5 μl [γ-^32 P]ATP (75 μM, 8800 cpm/pmole) and incubated for 10 minutes at 30° C. The assay is terminated by transferring 25 μl on pieces of Whatman P81 phosphocellulose paper. After 20 seconds the papers are washed 6 times with each 10 ml of 1% phosphoric acid for 5 minutes, dried and counted in a scintillation counter.

[3] = molecular target: EGF-receptor-specific protein tyrosine kinase (EGF-R-PTK) (Homo sapiens, UniProt P00533); experiment: inhibition of the EGF-receptor-specific protein tyrosine kinase (EGF-R-PTK); format: biochemical
Text: J. Biochem. 207, 265-275 (1992).

EGF-receptor-specific protein tyrosine kinase (EGF-R-PTK), sequence (P00533 669-1210 limits assumed): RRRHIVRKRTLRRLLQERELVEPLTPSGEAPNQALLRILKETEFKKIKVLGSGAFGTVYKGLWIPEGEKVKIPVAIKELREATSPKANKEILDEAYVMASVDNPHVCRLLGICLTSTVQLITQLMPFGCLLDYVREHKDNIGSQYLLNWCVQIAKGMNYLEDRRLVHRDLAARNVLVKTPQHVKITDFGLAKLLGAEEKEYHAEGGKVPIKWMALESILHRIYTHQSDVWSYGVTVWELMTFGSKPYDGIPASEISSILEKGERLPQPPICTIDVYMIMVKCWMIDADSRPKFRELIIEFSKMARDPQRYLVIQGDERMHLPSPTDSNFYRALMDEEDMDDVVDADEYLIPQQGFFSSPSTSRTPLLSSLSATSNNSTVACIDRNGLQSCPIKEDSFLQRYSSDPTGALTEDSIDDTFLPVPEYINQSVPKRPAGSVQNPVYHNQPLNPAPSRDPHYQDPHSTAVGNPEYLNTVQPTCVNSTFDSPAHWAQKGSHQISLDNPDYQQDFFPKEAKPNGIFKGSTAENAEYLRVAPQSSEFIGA

| inhibition of p34cdc2/cyclin Bcdc13 kinase [2] | IC50 ([2]; histone H1 substrate) [nM] | inhibition of the tyrosine kinase activity of the receptor for EGF [3] | Compound | average tumour volume compared with the untreated controls [1] |
| --- | --- | --- | --- | --- |
| inhibit | 80 |  | FC(F)C(F)(F)Oc1cccc(Nc2nccc(-c3ccncc3)n2)c1 [Example 32, N-[3-(1,1,2,2-tetrafluoroethoxy)phenyl]-4-(4-pyridyl)-2-pyrimidine-amine] | marked reduction in the average tumour volume |
|  |  | inhibit the tyrosine kinase activity | FC(F)C(F)(F)Oc1cccc(Nc2nccc(-c3c[nH]c4ccccc34)n2)c1 [Example 33, N-[3-(1,1,2,2-tetrafluoroethoxy)phenyl]-4-(3-indolyl)-2-pyrimidine-amine] |  |
